Measurements reported in US8623916B2, “Polyunsaturated fatty acid and diol ester as an anti-acne agent” (Pierre Fabre Dermo-Cosmetique, priority 2008, dated 2014).

How the values were obtained:
[1] = tested on: Propionibacterium acnes ATCC6919; test: Kinetics of antibacterial activity (residual CFU count), Propionibacterium acnes; type: cell-based; settings: for Log R: P. acnes
Excerpt: (§1) The kinetics of the antibacterial activity of 1,2-octanediol were studied by evaluating the lethality of the bacteria over time by counting residual colony-forming units (CFUs) after contact of the test solution with the bacterial suspension.
(§2) The bacterial strains used are: Staphylococcus aureus ATCC6538 and Propionibacterium acnes ATCC6919. The culture medium used for Staphylococcus aureus ATCC6538 is Trypcase Soy Agar whereas the culture medium used for Propionibacterium acnes ATCC6919 is Schaedler agar. Stock solutions containing 1% and 0.5% 1,2-octanediol are prepared extemporaneously in 1% Polysorbate 20 (qsp WFI) and then adjusted to pH 7 with 0.1 N NaOH solution.
(§3) A volume of 5 ml of each stock solution is inoculated with 50 μl bacterial suspension titrated at roughly 1×10^8 CFU/ml.
(§4) After each time of contact (contact times tested: 5 min, 15 min, 30 min and 60 min), residual bacteria are counted by taking a 1 ml aliquot neutralized by 9 ml Trypcase Soy Broth and 10% Polysorbate 80.
(§5) Counting is carried out by adding 1 ml neutralized mixture and four 1/10 serial dilutions to the corresponding agar plates.
(§6) The agar plates are incubated at 36° C.±1° C. in aerobic atmosphere for S. aureus and anaerobic atmosphere for P. acnes (Generbag anaer, Biomerieux) for 72 hours and then the CFUs are counted.
(§7) • with R meaning “reduction”. It refers to the ratio between the number of inoculated bacteria and the number of residual bacteria after contact of the test solution with the bacterial suspension.

[2] = tested on: Staphylococcus aureus ATCC6538; test: Kinetics of antibacterial activity (residual CFU count), Staphylococcus aureus; type: cell-based; settings: S. aureus
Excerpt: as §1, §2, §3, §4, §5, §6, §7

P. acnes strain = test: Antibacterial activity of the diols, MIC micromethod in liquid medium, P. acnes strain; type: cell-based, Propionibacterium acnes
Experimental: Tests were carried out with eight microbial strains using the dilution method described below.
Minimum inhibitory concentrations (MICs) are determined using a micromethod in liquid medium. Successive 1/2 dilutions of the test products in culture medium (Trypcase Soy Broth) are carried out in 96-well microplates in a final volume of 0.1 ml. The wells are inoculated with 0.01 ml of the bacterial suspensions titrated at roughly 1×10^7 CFU/ml. The microplates are incubated in optimal growth conditions and the MIC is read visually.
The columns labeled “BS” represent the bacteriostatic activity and the columns labeled “BC” represent the bactericidal activity of the diols (1% corresponds to a concentration of 10 mg/ml).

[3] = tested on: release of arachidonic acid and eicosanoids by HaCaT keratinocytes; test: Arachidonic acid metabolism in [3H]AA-labeled HaCaT keratinocytes stimulated by PMA/A23187; type: cell-based, human; settings: HaCaT pretreated with PUFA 24 h, 500 nM PMA and 1 μM A23187 for 5 hours (FIGS. 4A-4C)
Experimental: HaCaT keratinocytes were incubated in 24-well plates in the presence of 1 μCi [^3H]AA for 18 hours under an atmosphere of 5% CO2. To test the capacity of
PUFAs to modulate the inflammatory response of keratinocytes, [^3H]-labeled HaCaT cells are pretreated with PUFAs for 24 hours, rinsed and then stimulated by 500 nM PMA and 1 μM A23187 for 5 hours. [^3H]AA and metabolites released by the HaCaT cells in the culture medium are extracted by column chromatography. The eluate is evaporated under N2. The dry residue is taken up in methanol and deposited on thin-layer silica plates activated beforehand for 1 hour at 100° C. The developing solvent is the organic phase of the mixture ethyl acetate/water/isooctane/acetic acid (110:100:50:20, v/v). [^3H]AA and metabolites (6-keto-prostaglandin F1α, 6k-PGF1α; prostaglandin (PG) FαE2D2; thromboxane (TX) B2, leukotrienes (LT) B4, C4, D4) are identified by a Berthold TLC scanner.

[4] = tested on: interleukin 8 release by human HaCaT keratinocytes; settings: 24 h with PUFA, then PMA/A23187 for 6 h (FIG. 3)
Experimental: The anti-inflammatory potential of the PUFAs was tested on human keratinocytes (HaCaT) stimulated by PMA/A23187. The changes induced by these PUFAs are evaluated on the production of eicosanoids and an inflammatory cytokine, interleukin 8, during an inflammatory process triggered by PMA/A23187. HaCaT cells are incubated on 96-well plates for 24 h in the presence of PUFAs, rinsed and then stimulated by PMA/A23187. The supernatants are recovered after 6 h of stimulation and IL-8 is quantified using the OptEIA™ ELISA kit (BD Pharmingen).

## CCCCCCC(O)CO (stereo not drawn) [1,2-octanediol]
[1]; 0.5%, physiological pH, one hour of contact
  decrease of the population of P. acnes: greater than 99.9%
[1]; 0.5%, pH 7, contact 5 min
  Log R: 0.2
[1]; 0.5%, pH 7, contact 15 min
  Log R: 0.7
[1]; 0.5%, pH 7, contact 30 min
  Log R: 1.8
[1]; 0.5%, pH 7, contact 60 min
  Log R: 3
[1]; 1%, pH 7, contact 5 min
  Log R: >5
[1]; 1%, pH 7, contact 15 min
  Log R: >5
[1]; 1%, pH 7, contact 30 min
  Log R: >5
[1]; 1%, pH 7, contact 60 min
  Log R: >5
[2]; 0.5%, pH 7, contact 5 min
  Log R: 0.4
[2]; 0.5%, pH 7, contact 15 min
  Log R: 0.1
[2]; 0.5%, pH 7, contact 30 min
  Log R: 0.2
[2]; 0.5%, pH 7, contact 60 min
  Log R: 0.5
[2]; 1%, pH 7, contact 5 min
  Log R: >5.3
[2]; 1%, pH 7, contact 15 min
  Log R: >5.3
[2]; 1%, pH 7, contact 30 min
  Log R: >5.3
[2]; 1%, pH 7, contact 60 min
  Log R: >5.3

## CCCCCCC(O)CCO (stereo not drawn) [1,3-nonanediol]
P. acnes strain
  bactericidal effect concentration (BC): 3.12 mg/mL
  bacteriostatic effect concentration (BS): 1.56 mg/mL

## CCCCC/C=C\C/C=C\CCCCCCCC(=O)O [linoleic acid]
[3]
  release of arachidonic acid: significantly inhibits
  release of cyclooxygenated metabolites: significantly inhibits
  release of lipoxygenated metabolites: significantly inhibits

## CC/C=C\C/C=C\C/C=C\C/C=C\CCCCC(=O)O [stearidonic acid]
[3]
  release of arachidonic acid: significantly inhibits
  release of cyclooxygenated metabolites: significantly inhibits
  release of lipoxygenated metabolites: significantly inhibits

## CC/C=C\C/C=C\C/C=C\CCCCCCCC(=O)O [α-linolenic acid]
[4]
  effect on IL-8 secretion of stimulated keratinocytes: inhibitory effect
[3]
  release of arachidonic acid: significantly inhibits
  release of cyclooxygenated metabolites: significantly inhibits
  release of lipoxygenated metabolites: significantly inhibits

## CCCCC/C=C\C/C=C\C/C=C\CCCCC(=O)O [γ-linolenic acid]
[4]
  effect on IL-8 secretion of stimulated keratinocytes: inhibitory effect
